Assay results published in PubChem BioAssay (NCI).
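GI50: concentration for 50% inhibition of growth. Definition used: TGI = concentration required for complete inhibition of growth.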

Columns and labels:
Experiment in all cases: NCI-60 cell line screen, 384-well format; in the data active means GI50 below about 0.43 µM; inactive means the rest
[1] = test system: 786-0 renal
[2] = test system: A498 renal
[3] = test system: A549 NSCLC
[4] = test system: ACHN renal
[5] = test system: BT-549 breast
[6] = test system: CAKI-1 renal
[7] = test system: CCRF-CEM leukemia
[8] = test system: COLO 205 colon
[9] = test system: DU-145 prostate
[10] = test system: EKVX NSCLC
[11] = test system: HCC-2998 colon
[12] = test system: HCT-15 colon
[13] = test system: HL-60(TB) leukemia
[14] = test system: HOP-62 NSCLC
[15] = test system: HOP-92 NSCLC
[16] = test system: HS 578T breast
[17] = test system: HT29 colon
[18] = test system: IGROV1 ovarian
[19] = test system: KM12 colon
[20] = test system: M14 melanoma
[21] = test system: MALME-3M melanoma
[22] = test system: MCF7 breast
[23] = test system: MDA-MB-231 breast
[24] = test system: MDA-MB-435 melanoma
[25] = test system: MDA-MB-468 breast
[26] = test system: MOLT-4 leukemia
[27] = test system: NCI-H226 lung
[28] = test system: NCI-H23 lung
[29] = test system: NCI-H322M lung
[30] = test system: NCI-H460 NSCLC
[31] = test system: NCI-H522 lung
[32] = test system: NCI/ADR-RES ovarian
[33] = test system: OVCAR-3 ovarian
[34] = test system: OVCAR-4 ovarian
[35] = test system: OVCAR-5 ovarian
[36] = test system: OVCAR-8 ovarian
[37] = test system: PC-3 prostate
[38] = test system: RPMI-8226 leukemia
[39] = test system: RXF 393 renal
[40] = test system: SF-268 CNS
[41] = test system: SF-295 CNS
[42] = test system: SF-539 CNS
[43] = test system: SK-MEL-2 melanoma
[44] = test system: SK-MEL-28 melanoma
[45] = test system: SK-MEL-5 melanoma
[46] = test system: SK-OV-3 ovarian
[47] = test system: SN12C renal
[48] = test system: SNB-19 CNS
[49] = test system: SNB-75 CNS
[50] = test system: SR leukemia
[51] = test system: SW-620 colon
[52] = test system: T-47D breast
[53] = test system: TK-10 renal
[54] = test system: U251 glioblastoma
[55] = test system: UACC-257 melanoma
[56] = test system: UACC-62 melanoma

COc1c2occc2cc2ccc(=O)oc12
inactive: GI50 [1] > 100 µM | GI50 [2] > 100 µM | GI50 [3] > 100 µM | GI50 [4] > 100 µM | GI50 [5] > 100 µM | GI50 [6] > 100 µM | GI50 [7] > 100 µM | GI50 [8] > 100 µM | GI50 [9] > 100 µM | GI50 [10] 93.1 µM | GI50 [11] > 100 µM | GI50 [12] > 100 µM | GI50 [13] > 100 µM | GI50 [14] > 100 µM | GI50 [15] > 100 µM | GI50 [16] > 100 µM | GI50 [17] > 100 µM | GI50 [18] > 100 µM | GI50 [19] > 100 µM | GI50 [20] > 100 µM | GI50 [21] > 100 µM | GI50 [22] > 100 µM | GI50 [23] > 100 µM | GI50 [24] > 100 µM | GI50 [25] 39.8 µM | GI50 [26] > 100 µM | GI50 [27] 55.4 µM | GI50 [28] > 100 µM | GI50 [29] > 100 µM | GI50 [30] > 100 µM | GI50 [31] 60.9 µM | GI50 [32] > 100 µM | GI50 [33] > 100 µM | GI50 [34] > 100 µM | GI50 [35] > 100 µM | GI50 [36] > 100 µM | GI50 [37] > 100 µM | GI50 [38] > 100 µM | GI50 [39] > 100 µM | GI50 [40] > 100 µM | GI50 [41] > 100 µM | GI50 [42] > 100 µM | GI50 [43] > 100 µM | GI50 [44] > 100 µM | GI50 [45] > 100 µM | GI50 [46] > 100 µM | GI50 [47] > 100 µM | GI50 [48] > 100 µM | GI50 [49] 73.3 µM | GI50 [50] > 100 µM | GI50 [51] > 100 µM | GI50 [52] > 100 µM | GI50 [53] 81.6 µM | GI50 [54] > 100 µM | GI50 [55] > 100 µM | GI50 [56] > 100 µM
> 100 µM: TGI [1] | TGI [2] | TGI [3] | TGI [4] | TGI [5] | TGI [6] | TGI [7] | TGI [8] | TGI [9] | TGI [10] | TGI [11] | TGI [12] | TGI [13] | TGI [14] | TGI [15] | TGI [16] | TGI [17] | TGI [18] | TGI [19] | TGI [20] | TGI [21] | TGI [22] | TGI [23] | TGI [24] | TGI [25] | TGI [26] | TGI [27] | TGI [28] | TGI [29] | TGI [30] | TGI [31] | TGI [32] | TGI [33] | TGI [34] | TGI [35] | TGI [36] | TGI [37] | TGI [38] | TGI [39] | TGI [40] | TGI [41] | TGI [42] | TGI [43] | TGI [44] | TGI [45] | TGI [46] | TGI [47] | TGI [48] | TGI [49] | TGI [50] | TGI [51] | TGI [52] | TGI [53] | TGI [54] | TGI [55] | TGI [56]
